In patent US20260165323A1, “USE OF STROBILURIN TYPE COMPOUNDS FOR COMBATING PHYTOPATHOGENIC FUNGI CONTAINING AN AMINO ACID SUBSTITUTION F129L IN THE MITOCHONDRIAL CYTOCHROME B PROTEIN CONFERRING RESISTANCE TO QO […]” (priority 2022, published 2026):

Experiments:
Type in all cases: in vivo
[1] = tested on: Phakopsora pachyrhizi containing the amino acid substitution F129L in the mitochondrial cytochrome b protein; experiment: Use Example 1: protective control of soybean rust on soybeans (PHAKPA P2); details: inoculated 2 days after spraying, % diseased leaf area
Procedure: (§1) The compound was dissolved in a mixture of acetone and/or dimethylsulfoxide and the wetting agent/emulsifier Wettol, which is based on ethoxylated alkylphenoles, in a ratio (volume) solvent-emulsifier of 99 to 1 to give a total volume of 5 ml. Subsequently, water was added to total volume of 100 ml. This stock solution was then diluted with the described solvent-emulsifier-water mixture to the final concentration given in the tables below.
Use Example 1. Protective Control of Soybean Rust on Soybeans Caused by Phakopsora pachyrhizi (PHAKPA P2)
(§2) Leaves of potted soybean seedlings were sprayed to run-off with the previously described spray solution, containing the concentration of active ingredient or their mixture as described below. The plants were allowed to air-dry. The trial plants were cultivated for 2 days in a greenhouse chamber at 23-27° C. and a relative humidity between 60 and 80%. Then the plants were inoculated with spores of Phakopsora pachyrhizi. The strain used contains the amino acid substitution F129L in the mitochondrial cytochrome b protein conferring resistance to Qo inhibitors. To ensure the success the artificial inoculation, the plants were transferred to a humid chamber with a relative humidity of about 95% and 20 to 24° C. for 24 hr. The trial plants were cultivated for up to 14 days in a greenhouse chamber at 23 to 27° C. and a relative humidity between 60 and 80%. The extent of fungal attack on the leaves was visually assessed as % diseased leaf area, the disease level of untreated controls was usually higher than 85%.

[2] = tested on: Phakopsora pachyrhizi containing the amino acid substitution F129L in the mitochondrial cytochrome b protein; experiment: Use Example 2: protective control of soybean rust on soybeans (PHAKPA P6); details: inoculated six days after spraying, % diseased leaf area
Procedure: as §1
Use Example 2. Protective Control of Soybean Rust on Soybeans Caused by Phakopsora Pachyrhizi (PHAKPA P6)
as §2, with “active ingredient as described” for “active ingredient or their mixture as described”, “cultivated for six days in” for “cultivated for 2 days in”, “95% and 23 to 27°” for “95% and 20 to 24°”, “23 to 27° C. for” for “20 to 24° C. for”

[3] = tested on: Puccinia recondita; experiment: Use Example 4: preventative control of brown rust on wheat (PUCCRT P7); details: inoculated seven days after spraying, % diseased leaf area
Procedure: as §1
Use Example 4. Preventative Control of Brown Rust on Wheat Caused by Puccinia recondita (PUCCRT P7)
The first two developed leaves of potted wheat seedling were sprayed to run-off with previously described spray solution, containing the concentration of active ingredient or their mixture as described below. Seven days later the plants were dusted with spores of Puccinia recondita. To ensure the success of the artificial inoculation, the plants were transferred to a humid chamber without light and a relative humidity of 95 to 99% and 20 to 24° C. for 24 h. Then the trial plants were cultivated for 9 to 11 days in a greenhouse chamber at 20 to 24° C. and a relative humidity between 65 and 70%. The extent of fungal attack on the leaves was visually assessed as % diseased leaf area, the disease level of untreated controls was usually between 80 and 100%.

| Structure (SMILES) | % PHAKPA (F129L) Disease level P2 at 4 ppm [1] | % PHAKPA (F129L) Disease level P2 at 16 ppm [1] | % PHAKPA (F129L) Disease level P6 at 4 ppm [2] | % PHAKPA (F129L) Disease level P6 at 16 ppm [2] | % PUCCRT Disease level P7 at 4 ppm [3] | % PUCCRT Disease level P7 at 16 ppm [3] |
| --- | --- | --- | --- | --- | --- | --- |
| CNC(=O)/C(=N/OC)c1cccc(Cl)c1CO/N=C(\COC)c1cccc(Cl)c1Cl [compound 75] | 73% | 24% | 25% | 11% | 67% | 33% |
| COC/C(=N\OCc1c(Cl)cccc1/C(=N\OC)C(=O)OC)c1ccc(Cl)c(F)c1 [compound 114] | 35% | 10% | 82% | 30% | – | – |
| COC/C(=N\OCc1c(Cl)cccc1/C(=N\OC)C(=O)OC)c1ccc(Cl)cc1F [compound 104] | 42% | 7% | 27% | 9% | – | – |
| COC/C(=N\OCc1c(Cl)cccc1/C(=N\OC)C(=O)OC)c1ccc(Cl)c(Cl)c1 [compound 68] | 17% | 2% | 45% | 9% | 40% | 12% |
| CO/C=C(/C(=O)OC)c1cccc(Cl)c1CO/N=C(\COC1CC1)c1ccc(F)cc1 [compound 60] | 21% | 2% | 21% | 6% | – | – |
| CO/C=C(/C(=O)OC)c1cccc(Cl)c1CO/N=C(/COC)c1ccc(F)cn1 [compound 132, methyl (E)-2-[3-chloro-2-[[(E)-[1-(5-fluoro-2-pyridyl)-2-methoxy-ethylidene]amino]oxymethyl]phenyl]-3-methoxy-prop-2-enoate] | – | 33% | – | 15% | – | – |
| CO/C=C(/C(=O)OC)c1cccc(Cl)c1CO/N=C(\COC1CC1)c1ccccc1 [compound 61] | 11% | 0% | 16% | 2% | – | – |
| CNC(=O)/C(=N/OC)c1cccc(Cl)c1CO/N=C(\COC)c1ccc(F)cc1Cl [compound 94] | 29% | 5% | 43% | 11% | 57% | 26% |
| CNC(=O)/C(=N/OC)c1cccc(Cl)c1CO/N=C(\COC)c1ccccc1C [compound 122] | 82% | 20% | 76% | 30% | 45% | 20% |
| COC/C(=N\OCc1c(Cl)cccc1/C(=N\OC)C(=O)OC)c1cccc(C)c1 [compound 126] | 71% | 14% | 73% | 34% | – | – |
| CNC(=O)/C(=N/OC)c1cccc(Cl)c1CO/N=C(\COC)c1cccc(F)c1F [compound 91] | 13% | 15% | 17% | 18% | – | – |
| CO/C=C(/C(=O)OC)c1cccc(Cl)c1CO/N=C(\COC)c1c(F)cc(Cl)cc1F [compound 115] | 8% | 0% | 9% | 1% | 57% | 14% |
| COC/C(=N\OCc1c(Cl)cccc1/C(=N\OC)C(=O)OC)c1cccc(OC)c1 [compound 120] | 67% | 11% | 81% | 45% | 22% | 2% |
| COC/C(=N\OCc1c(Cl)cccc1/C(=N\OC)C(=O)OC)c1c(F)ccc(F)c1F [compound 111] | 39% | 5% | 42% | 15% | 30% | 17% |
| CNC(=O)/C(=N/OC)c1cccc(Cl)c1CO/N=C(\COC)c1ccc(F)c(F)c1F [compound 108] | 21% | 4% | 19% | 7% | – | – |
| COC/C(=N\OCc1c(Cl)cccc1/C(=N\OC)C(=O)OC)c1ccccc1C [compound 124] | – | – | – | – | 62% | 22% |
| CO/C=C(/C(=O)OC)c1cccc(Cl)c1CO/N=C(\COC)c1ccccc1Cl [compound 15, Methyl-(E)-2-[3-chloro-2-[[(Z)-[1-(2-chlorophenyl)-2-methoxy-ethylidene]amino]oxymethyl]phenyl]-3-methoxy-prop-2-enoate] | 30% | 4% | 40% | 7% | – | – |
| COC/C(=N\OCc1c(Cl)cccc1/C(=N\OC)C(=O)OC)c1cc(F)cc(F)c1 [compound 82] | 12% | 0% | 57% | 22% | 57% | 17% |
| CNC(=O)/C(=N/OC)c1cccc(Cl)c1CO/N=C(\COC1CC1)c1ccc(F)cc1 [compound 64] | 37% | 7% | 45% | 7% | – | – |
| COC/C(=N\OCc1c(Cl)cccc1/C(=N\OC)C(=O)OC)c1cc(F)c(F)c(F)c1 [compound 72] | 19% | 1% | 48% | 10% | 60% | 16% |
| COC/C(=N\OCc1c(Cl)cccc1/C(=N\OC)C(=O)OC)c1cc(Cl)ccc1F [compound 103] | 72% | 18% | 72% | 18% | – | – |
| CO/C=C(/C(=O)OC)c1cccc(Br)c1CO/N=C(\COC1CC1)c1ccc(F)cc1 [compound 65] | 15% | 1% | 23% | 2% | – | – |
| CNC(=O)/C(=N/OC)c1cccc(Cl)c1CO/N=C(\COC)c1ccc(Cl)cc1Cl [compound 85] | 42% | 37% | 65% | 25% | – | – |
| CO/C=C(/C(=O)OC)c1cccc(Cl)c1CO/N=C(\COC)c1ccc(Cl)cc1Cl [compound 81] | 63% | 21% | 35% | 20% | – | – |
